In article PMC7472781, “Inherited and Acquired Determinants of Hepatic CYP3A Activity in Humans” (Frontiers in Genetics, 2020):
Several values for one entry are separate records, joined by “and”; a condition that tells them apart may be missing. Identical values can stand only once. Marks after values point to notes of the source that are not given here.

Tests used:
[1] = system: CYP3A; settings: cited from earlier work; for CYP3A activity increased: in vivo
[2] = system: CYP3A; assay: clinical; settings: for AUC: 0.2 mg midazolam i.v., zero to infinity; for AUC, mean / Intra-individual (between-days) mean coefficient of variation: three occasions; for AUC420: dose to 420 min
Protocol: Midazolam was administered as a 2 min intravenous infusion with a total dose of 0.2 mg. The phenotyping test with midazolam was performed on three different occasions with a time interval of at least 1 week and maximally 3 months.
Pharmacokinetic parameters were estimated by non-compartmental analyses using the WinNonlin software (Pharsight Corporation, Mountain View, United States). The AUC from zero to infinity (AUC), was calculated by the linear/log trapezoidal rule and using the terminal elimination rate constant (lambda z). […] Total plasma clearance (Cl) after administration of midazolam was calculated as the ratio dose over AUC. Time (tmax) and amount of maximum plasma concentration (Cmax) were given as measured and the terminal half-life (t1/2) was calculated as t1/2 = ln(2)/lambda z.

[3] = system: CYP3A; assay: Multifactorial analysis of genetic and environmental effects on the CYP3A probe drugs and biomarkers; settings: in vivo
Protocol: DNA was isolated from whole venous blood by automated solid phase extraction with the EZ1^TM DNA Blood 350 μl Kit using the Bio-robot EZ1^TM (both Qiagen, Hilden, Germany). The CYP3A4^∗1b and ^∗22 alleles as well as the CYP3A5^∗1/^∗3 polymorphism were genotyped by DNA sequencing using fluorescence-labeled dideoxynucleotides and detection via Gene Mapper v3.7 Software® (Applied Biosystems®, Foster City, United States). Zygosity was assessed by analyzing variants in 23 polymorphic genes. Monozygosity was concluded when there were no differences regarding the polymorphisms in both siblings of one twin pair.
(§1) Predefined primary endpoint was midazolam AUC. All concentrations and pharmacokinetic parameters were determined on three independent occasions to compare intra- versus interindividual variation. […] In structural equation modeling of heritability and in the other multifactorial analyses the individual means from the measurements or parameters obtained on the three occasions were used. Using structural equation analysis, variation was separated into additive genetic (A), common environmental (C), and unique environmental (E) effects. The heritability is the proportion of the variance resulting from the genetic effect (A). In order to investigate the genetic, common environmental, and unique environmental effects of the different traits taken into account, the possible correlation between traits were fitted in multivariate ACE, AE, and CE biometrical models using the mcglm package for multivariate regression analysis in R. As an exploratory analysis, we computed the correlation between MZ and DZ twins based on an unstructured (equal mean and variance for MZ and DZ twins) model. In all models, the mean structure for each trait was specified as a linear function of the covariates age and sex.

[4] = system: CYP3A; assay: Twin correlations and structural equation modeling (ACE, AE, CE) of heritability of the CYP3A biomarkers; settings: for rdz (correlation between DZ twins) / rmz (correlation between MZ twins): unstructured model
Protocol: as §1

[5] = system: CYP3A; assay: Within- and between-subject variance and genetic component (Kalow) of the 4 CYP3A biomarkers, three occasions; settings: for Genetic component: from intra- and inter-individual variation, independent of twin status, AUC, plasma concentration or 24-h urine Ae
Protocol: as §1

[6] = system: CYP3A; assay: Endogenous CYP3A biomarker in 24-h urine: cortisol and 6ß-OH-cortisol (LC-MS-MS); settings: value (range); for Amount in urine: 24 h urine; for Ratio (cortisol): urine
Protocol: Cholesterol and 4ß-OH cholesterol were measured in the baseline blood samples before drug administration. All samples were centrifuged for 10 min (4000 rpm) at 4°C and the plasma was stored at −20°C.
Calibration samples for cholesterol were prepared in isooctane with 10% 2-propanol in the concentration range from 1 to 30 μg. Calibration samples for 4ß-hydroxycholesterol were prepared in isooctane with 0.8% 2-propanol from 5 to 100 ng. […] Calibration samples were worked up as the samples, and analyzed together with the unknown samples. […] The concentration in unknown samples was obtained from the regression line.

[7] = system: CYP3A; assay: Endogenous CYP3A biomarker in plasma: cholesterol and 4ß-OH-cholesterol (GC-MS, baseline blood samples); settings: for Ratio (cholesterol): plasma; for Ratio (cholesterol) / Plasma concentration: value (range)
Protocol: Briefly, 10 μl of plasma were spiked with 10 μg of cholesterol-d5 as internal standard. After saponification with 0.5 ml of 1 M NaOH in 90% ethanol at 70°C for 1 h, 250 μl of water were added and the samples extracted with 2 ml of n-hexane. An aliquot of 50 μl of the extract was evaporated to dryness and derivatized with 20 μl of N,O-bis(trimethylsilyl)trifluoroacetamide (BSTFA) for 30 min at room temperature.
Briefly, 1 ml of plasma was spiked with 10 μg of BHT and 50 ng of the internal standard 4ß-hydroxycholesterol-d4 and saponified with 2.5 ml of 1 M NaOH in 90% ethanol at 70°C for 1 h under argon and then extracted with 1 ml of water and 5 ml of chloroform. The chloroform phase was evaporated to dryness in a stream of nitrogen and the residue dissolved in 1 ml of toluene. […] The cartridges were washed with 1 ml of hexane and 10 ml of 2-propanol in hexane (0.5% v/v) and then eluted with 2 ml of 2-propanol in hexane (30% v/v). The eluate was evaporated to dryness in a stream of nitrogen and derivatized with 20 μl of BSTFA for 30 min at room temperature. GC was performed on a J&W DB-5MS column (25 m, 0.2 mm i.d., 0.33 μm film thickness; Agilent) in the splitless mode. For the analysis of cholesterol, the GC oven program started at 150°C and was held for 1 min. […] For the analysis of 4ß-hydroxycholesterol the GC oven program startet at 150°C and was held for 1 min. Temperature was increased with 10°C/min to 250°C, then with 30°C/min to 300°C.

[8] = other studies; ref Diczfalusy et al., 2008; cited from earlier work
[9] = ref Heizmann et al., 1983; cited from earlier work

## CCC1(c2ccccc2)C(=O)NC(=O)NC1=O [phenobarbital]
[1]
  CYP3A activity increased: up to 10 fold

## OCc1ncc2n1-c1ccc(Cl)cc1C(c1ccccc1F)=NC2 [1-OH-midazolam, 1′-hydroxymidazolam]
[2]; DZ twins, value (range)
  AUC: 73.31 (30.95 – 322.8) μg * min/L
  Ratio 1-OH-midazolam/midazolam (AUC): 0.17 (0.07 – 0.54)
[2]; MZ twins, value (range)
  AUC: 66.88 (33.75 – 195.6) μg * min/L
  Ratio 1-OH-midazolam/midazolam (AUC): 0.15 (0.09 – 0.61)
[2]; all subjects
  AUC, inter-individual range: 30.95 – 322.8 μg∗min/L
  Inter-individual variation in AUC: 10.4 fold
  AUC, mean: 86.2 µg·min/L
[2]
  Intra-individual (between-days) mean coefficient of variation: 12.3%
[3]
  Coefficient, CYP3A4*22: −12.53
  Coefficient, CYP3A5*3: 29.27
  Coefficient, age: −1.78
  Coefficient, lean body weight: −1.74.
  Coefficient, sex: 11.79
  Coefficient, smoking status: 1.46
  Coefficient, oral contraceptives: −31.33
[4]; ACE model
  C^2 (common environmental effect): 0.21 (0.23)
  H^2 (heritability): 0.73 (0.23)*
  Variation due to additive genetic (inherited) effects: 73%
[4]; AE model
  H^2 (heritability): 0.94 (0.01)*
[4]; CE model
  C^2 (common environmental effect): 0.78 (0.04)*
[4]
  rdz (correlation between DZ twins): 0.59 (0.11)*
  rmz (correlation between MZ twins): 0.94 (0.01)*
[5]
  Genetic component: 0.93 and 0.931
[5]; human, in vivo
  Variation that may be due to genetic factors (from genetic component): up to 93%

## C[C@]12CCC(=O)C=C1CC[C@@H]1[C@@H]2[C@@H](O)C[C@@]2(C)[C@H]1CC[C@]2(O)C(=O)CO [Cortisol, cortisol]
[6]; DZ twins
  Amount in urine: 32.14 (11.10 – 90.00) μg
  Ratio (cortisol): 6.75 (3.38 – 18.22)
[6]; MZ twins
  Amount in urine: 35.85 (10.05 – 142.80) μg
  Ratio (cortisol): 6.29 (3.09 – 14.65)

## CC(C)CCC[C@@H](C)[C@H]1CC[C@H]2[C@@H]3CC=C4C[C@@H](O)CC[C@]4(C)[C@H]3CC[C@]12C [Cholesterol, cholesterol]
[7]; DZ twins
  Ratio (cholesterol): 0.17 (0.12 – 0.25)
  Plasma concentration: 1.38 (0.94 – 2.12) mg/ml
[7]; MZ twins
  Ratio (cholesterol): 0.17 (0.01 – 0.35)
  Plasma concentration: 1.39 (0.86 – 1.99) mg/ml

## CC(C)CCC[C@@H](C)[C@H]1CC[C@H]2[C@@H]3CC=C4[C@@H](O)[C@@H](O)CC[C@]4(C)[C@H]3CC[C@]12C [4ß-OH-cholesterol, 4ß-hydroxycholesterol]
[3]; human
  Coefficient, CYP3A4*22: −8.21
  Coefficient, CYP3A5*3: −6.30
  Coefficient, age: 0.16
  Coefficient, sex: −3.32
[3]; human, 0.2 mg
  Coefficient, lean body weight: −0.20
  Coefficient, smoking status: 3.28
  Coefficient, oral contraceptives: −2.57
[4]; ACE model
  C^2 (common environmental effect): 0.22 (0.26)
  H^2 (heritability): 0.56 (0.26)*
  Variation due to additive genetic (inherited) effects: 56%
[4]; AE model
  H^2 (heritability): 0.79 (0.04)*
[4]; CE model
  C^2 (common environmental effect): 0.74 (0.04)*
[4]
  rdz (correlation between DZ twins): 0.53 (0.12)*
  rmz (correlation between MZ twins): 0.79 (0.04)*
[8]
  half-life: ≥ 408 h
[5]
  Genetic component: 0.812
[5]; human, in vivo
  Variance between subjects (Varb) of plasma concentration: 86.5 ng/mL
[5]; three occasions
  Variance within subjects (Varw) of plasma concentration: 14.3 ng/mL
[7]; DZ twins
  Plasma concentration: 23.07 (15.12 – 46.77) ng/ml
[7]; MZ twins
  Plasma concentration: 24.56 (12.59 – 62.96) ng/ml
[7]; all subjects, three occasions
  Plasma concentration, mean: 25.9 ng/mL
[7]; heterozygous carriers of active CYP3A5*1
  Median plasma level: 30.69 ng/mL
[7]; homozygous carriers of CYP3A5*3
  Median plasma level: 23.01 ng/mL

## NC(=O)N1c2ccccc2C=Cc2ccccc21 [carbamazepin]
[1]
  CYP3A activity increased: up to 10 fold

## Cc1ncc2n1-c1ccc(Cl)cc1C(c1ccccc1F)=NC2 [Midazolam, midazolam]
[2]; *1/*1 and *1/*1B genotypes (n = 110)
  Median AUC: 439.1 μg ∗ min/L
[2]; DZ twins, value (range)
  AUC: 431.0 (287.8 – 640.7) μg * min/L
  AUC420: 354.8 (240.0 – 542.9) μg * min/L
  tmax: 10 (10 – 19) min
[2]; MZ twins, value (range)
  AUC: 450.3 (290.3 – 897.4) μg * min/L
  AUC420: 378.6 (255.8 – 636.4) μg * min/L
[2]; all subjects
  AUC, inter-individual range: 288 – 897.4 μg∗min/L
  Inter-individual variation in AUC: 3.1 fold
  AUC, mean: 464.0 µg·min/L
[2]; daily fruit consumption
  Median AUC: 425.4 μg ∗ min/L
[2]; heterozygous carriers of CYP3A4*22 (n = 4)
  Median AUC: 595.1 μg ∗ min/L
[2]; human, plasma, intravenous, 0.2 mg
  tmax: 0.167 h
[2]; human, plasma, intravenous, 0.2 mg, Cl, DZ twins, total plasma clearance, value (range)
  clearance: 480 mL/min
[2]; human, plasma, intravenous, 0.2 mg, Cl, DZ twins, value (range)
  clearance: 6.74 mL/min/kg
[2]; human, plasma, intravenous, 0.2 mg, Cl, MZ twins, total plasma clearance, value (range)
  clearance: 450 mL/min
[2]; human, plasma, intravenous, 0.2 mg, Cl, MZ twins, value (range)
  clearance: 6.8 mL/min/kg
[2]; human, plasma, intravenous, 0.2 mg, Clearance, summary in discussion (Table 2)
  clearance: ~500 mL/min
[2]; human, plasma, intravenous, 0.2 mg, DZ twins, value (range)
  Cmax: 3.76 ng/mL
[2]; human, plasma, intravenous, 0.2 mg, MZ twins, value (range)
  Cmax: 4.11 ng/mL
[2]; human, plasma, intravenous, 0.2 mg, Elimination half-life, summary in discussion (Table 2)
  half-life: ~2 h
[2]; human, plasma, intravenous, 0.2 mg, t1/2, DZ twins, terminal half-life, value (range)
  half-life: 3.08 h
[2]; human, plasma, intravenous, 0.2 mg, t1/2, MZ twins, terminal half-life, value (range)
  half-life: 2.72 h
[2]; median
  AUC higher in male than in female subjects: 8%
[2]; one study day, all subjects
  Variation of plasma concentrations between subjects: about 10 fold
[2]; rare fruit consumption
  Median AUC: 519.4 μg ∗ min/L
[2]
  Intra-individual (between-days) mean coefficient of variation: 11.3%
[2]; thrice weekly fruit consumption
  Median AUC: 446.9 μg ∗ min/L
[2]; very rare fruit consumption
  Median AUC: 558.9 μg ∗ min/L
[3]; human
  Coefficient, CYP3A4*22: 169.57
  Coefficient, CYP3A5*3: 32.33
  Coefficient, age: −0.60
  Coefficient, sex: 74.51
[3]; human, 0.2 mg
  Coefficient, lean body weight: −7.29
  Coefficient, smoking status: −21.79
  Coefficient, oral contraceptives: −63.18
[4]; ACE model
  C^2 (common environmental effect): 0.48 (0.24)*
  H^2 (heritability): 0.15 (0.25)
  Variation attributed to common environmental factors: 48%
  Variation due to additive genetic (inherited) effects: 15%
[4]; AE model
  H^2 (heritability): 0.63 (0.06)*
[4]; CE model
  C^2 (common environmental effect): 0.60 (0.06)*
[4]
  rdz (correlation between DZ twins): 0.52 (0.13)*
  rmz (correlation between MZ twins): 0.66 (0.06)*
[5]
  Genetic component: 0.612
[5]; human, in vivo
  Variation that may be due to genetic factors (from genetic component): up to 61%
[9]
  Fraction of midazolam eliminated as 1-OH-midazolam: Approximately 75%

## CCC(C)n1ncn(-c2ccc(N3CCN(c4ccc(OCC5COC(Cn6cncn6)(c6ccc(Cl)cc6Cl)O5)cc4)CC3)cc2)c1=O (centres unmarked) [itraconazole]
[1]; strong inhibitors, ref Kim et al., 2006, Greenblatt and Harmatz, 2015
  CYP3A activity reduced to: 10%
